In patent US20120053227A1, “miR-33 INHIBITORS AND USES THEREOF” (New York University, priority 2010, published 2012):

Assays:
[1] = test system: Huh7 cells; experiment: mRNA and protein expression of miR-33 target genes in transfected Huh7 cells; assay type: cell-based; settings: for CROT, CPT1a, HADHB, AMPKα, SIRT6, and IRS2 protein expression: to a similar extent for miR-33a and miR-33b
Method: Total RNA was isolated using TRIzol reagent (Invitrogen) according to the manufacturer's protocol. For mRNA quantification, cDNA was synthesized using Taqman RT reagents (Applied Biosystems), following the manufacturer's protocol. Quantitative real-time PCR was performed in triplicate using iQ SYBR green Supermix (BioRad) on iCycler Real-Time Detection System (BioRad). The mRNA level was normalized to GAPDH as a house keeping gene. The primers sequences used were: […]
(§1) HepG2 and Huh7 cells were transfected with 40 nM miRIDIAN miRNA mimics (miR-33) or 60 nM miRIDIAN miRNA inhibitors (anti-miR-33) (Dharmacon) using Oligofectamine (Invitrogen). All experimental control samples were treated with an equal concentration of a nontargeting control mimic sequence (CM) or an inhibitor negative control sequence (CI) to control for nonsequence-specific effects in miRNA experiments

[2] = test system: 3′ UTR of Crot, Cpt1a, Hadhb, Ampkα, and Irs2; experiment: 3′ UTR luciferase reporter assay, Crot, Cpt1a, Hadhb, Ampkα, Irs2; assay type: cell-based; settings: only modest differences between miR-33a and miR-33b
From the text: (§2) cDNA fragments corresponding to the entire 3′ UTR of carnitine O-octaniltransferase (Crot), carnitine palmitoyltransferase 1A (Cpt1a), hydroxyacyl-CoAdehydrogenase (Hadhb), AMP kinase subunit-α (Ampkα), and insulin receptor substrate 2 (Irs2), citrate synthase (Cs), 3-hydroxy-3-methylglutaryl CoA (Hmgcr), and Sirtuin 6 (Sirt6) were amplified by RT-PCR from total RNA extracted from HepG2 cells with XhoI and NotI linkers. The PCR products were directionally cloned downstream of the Renilla luciferase ORF of the ψCHECK2 vector (Promega) that also contains a constitutively expressed firefly luciferase gene, which is used to normalize transfections. Point mutations in the seed region of predicted miR-33 sites within the 3′ UTR of Crot, Cpt1a, Hadhb, Ampkα, and Sirt6 were generated using Multisite-Quickchange (Stratagene) according to the manufacturer's protocol. All constructs were confirmed by sequencing. COS-7 cells were plated into 12-well plates (Costar) and cotransfected with 1 μg indicated 3′ UTR luciferase reporter vectors and the miR-33 mimic or negative control mimic (CM) (Dharmacon) using Lipofectamine 2000 (Invitrogen). Luciferase activity was measured using the Dual-Glo Luciferase Assay System (Promega). […]

[3] = test system: Huh7 cells; experiment: 2-Deoxyglucose uptake; assay type: cell-based
Method: Huh7 cells were transfected with miR-33b (20 nM) or negative control (Con-miR) for 48 h. Then, cells were cultured in serum-free media for 24 h, washed two times, and placed into warmed buffer for 2 h before glucose uptake studies. Insulin (100 nM) was added for 10 min. After this, […] 2-deoxyglucose (2-DOG) was added to each well (Perkin-Elmer). After 5 min, 5% unlabeled glucose was added to stop the reaction. Cells were then washed two times in 5% glucose and lysed by the addition of 0.5% SDS; 3 mL Ultima Gold scintillant (Packard) were added, samples were vortexed, and radioactivity was counted.

[4] = test system: Huh7 cells; experiment: AKT and ERK phosphorylation after insulin stimulation; assay type: cell-based
Method: Cell were lysed in ice-cold buffer containing 50 mM Tris-HCl, pH 7.5, 125 mM NaCl, 1% NP-40, 5.3 mM NaF, 1.5 mM NaP and 1 mM orthovanadate, 175 mg/ml octylglucopyranoside and 1 mg/ml of protease inhibitor cocktail (Roche) and 0.25 mg/ml AEBSF (Roche). Cell lysates were rotated at 4° C. for 1 h before the insoluble material were removed by centrifugation at 12000×g for 10 min. After normalizing for equal protein concentration, cell lysates were resuspended in SDS sample buffer before separation by SDS-PAGE. Following overnight transfer of the proteins onto nitrocellulose membranes. The membranes were probed with the indicated antibodies, and protein bands were visualized using the Odyssey Infrared Imaging System (LI-COR Biotechnology). Densitometry analysis of the gels was carried out using ImageJ software from the NIH (http://rsbweb.nih.gov/ij/).
as §1

[5] = test system: Huh7 cells; experiment: Fatty acid β-oxidation assay ([14C]-oleate); assay type: cell-based
Method: HepG2 and Huh7 cells were transfected with miR-33 (20 nM), anti-miR-33 (40 nM), or negative control (con-miR and con-inh, respectively), and the rate of fatty acid oxidation was determined. Cells were cultured in the presence of [^14C]-oleate (Perkin-Elmer)-BSA complex, and the released [^14C]-carbon dioxide was trapped for 1 h at 37° C. onto filter paper soaked in 100 mM sodium hydroxide. The rate of β-oxidation was calculated as the amount of trapped [^14C]-carbon dioxide in relative units produced per milligram of protein per hour. Experiments were performed in triplicate in p60 plates and were repeated at least three times.

[6] = test system: Huh7 cells; experiment: Triglyceride content and synthesis in Huh7 cells incubated with oleate and starved; assay type: cell-based; settings: oleate 24 h then starved 24 h
Method: The accumulation of neutral lipids and lipid droplet formation was next evaluated tin Huh7 cells incubated with oleate for 24 h and then starved for the next 24 h. […] The increase in triglyceride content was independent of changes in triglyceride synthesis rates.

[7] = test system: Sirt6 3′ UTR; experiment: 3′ UTR luciferase reporter assay, Sirt6; assay type: cell-based, human
From the text: as §2

| Substance | CROT, CPT1a, HADHB, AMPKα, SIRT6, and IRS2 protein expression [1] | 3′ UTR activity of Crot, Cpt1a, Hadhb, Ampkα, and Irs2 [2] | insulin-induced 2-deoxyglucose (2-DOG) uptake [3] | SIRT6 mRNA and protein levels [1] | miR-33b expression after transfection, increase [1] | mRNA levels of CROT, CPT1a, HADHB, AMPKα, and IRS2 ([1]; anti-miR-33b: CROT, CPT1a, AMPKα, IRS2) | AKT and ERK phosphorylation [4] | miR-33b expression, fold increase [5] | rate of fatty acid β-oxidation [5] | triglycerides (TAG) accumulation [6] | 3′ UTR activity of Sirt6 [7] |
| --- | --- | --- | --- | --- | --- | --- | --- | --- | --- | --- | --- |
| miR-33a: miR-33a transfected into Huh7 cells; human miR-33a sequence GUGCAUUGUAGUUGCAUUGCA (SEQ ID NO:32) (listed as RNA, chemistry not given here; listed as Homo sapiens) | inhibited | significantly inhibited |  |  |  |  |  |  |  |  |  |
| miR-33b: miR-33b transfected into Huh7 cells; human miR-33b sequence GUGCAUUGCUGUUGCAUUGC (SEQ ID NO:34) (listed as RNA, chemistry not given here; listed as Homo sapiens) | inhibited | significantly inhibited | reduced | significantly inhibited | 32 fold | significantly inhibited | reduced | 27 fold | markedly reduced | accumulated more triglycerides | markedly repressed |
